# Experimental data reported in patent publication US11780901B2, “Analogues of parathyroid hormone (1-34) that function as agonists of the parathyroid hormone receptor-1 and display modified activity profiles” (Wisconsin Alumni Research Foundation, priority 2013, dated 2023).
# Read-outs that look alike come from different tables or passages of the source. Starred links: 1 amine or outer side, 2 acyl side, 3 side chain; linkers in the order of their positions; H or OH if unused. Non-standard residues stand in square brackets, D forms with d. Residues, ends and D or L forms follow the SMILES beside them. X7 = NC(=O)CC[C@@H](CN[*:1])C(=O)[*:2]
# Experiments:
# Format in all cases: cell-based
# PTHR1 and PTHR2 = experiment: Tolerance pattern of β residues for PTHR1 and PTHR2 activation; parameters: key: “*” denotes potent PTHR1-selective agonism; “#” denotes potent PTHR2-selective agonism; “*#” denotes potent agonism of both PTHR1 and PTHR2; conditions: PTHR1 vs PTHR2 agonism
# Excerpt: Enhanced selectivity via double α→β replacement.
# PTHR1 = target: T1, PTHR1 (Homo sapiens, UniProt Q03431); experiment: PTHR1 activation, cAMP production (GloSensor) in HEK293 cells; parameters: expressed in transfected cells; conditions: for PTHR1 Activation: Derivative EC50/PTH EC50: normalized to EC50 of PTH(1-34)-NH2 ([…]), cAMP production
# T1 sequence (Q03431 27-593): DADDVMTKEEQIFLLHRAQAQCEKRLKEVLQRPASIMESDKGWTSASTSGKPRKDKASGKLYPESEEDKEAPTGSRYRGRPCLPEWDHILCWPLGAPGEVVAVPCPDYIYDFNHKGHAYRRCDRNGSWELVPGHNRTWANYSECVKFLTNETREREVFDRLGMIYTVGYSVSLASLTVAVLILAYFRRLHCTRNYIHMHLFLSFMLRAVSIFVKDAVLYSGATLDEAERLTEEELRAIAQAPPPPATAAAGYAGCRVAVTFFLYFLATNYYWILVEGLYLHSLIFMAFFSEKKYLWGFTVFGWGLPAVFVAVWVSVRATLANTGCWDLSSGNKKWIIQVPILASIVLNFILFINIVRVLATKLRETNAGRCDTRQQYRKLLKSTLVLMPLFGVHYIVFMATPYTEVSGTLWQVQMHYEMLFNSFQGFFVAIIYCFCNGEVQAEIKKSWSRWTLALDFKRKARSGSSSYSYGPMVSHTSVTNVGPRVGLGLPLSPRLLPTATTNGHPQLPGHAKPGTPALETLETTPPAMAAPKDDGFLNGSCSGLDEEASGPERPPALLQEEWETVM
# Excerpt: The assays employ HEK-293 cells that have been engineered to express the appropriate receptor. GloSensor-based detection of cAMP provides a read-out of receptor activation.
# (§1) For PTHR1 activation and all the binding data, data represent mean±s.e.m from three independent measurements; For PTHR2 activation, data represent mean±s.e.m from four independent measurements. Curves were fit to the data using a four-parameter sigmoidal dose-response equation.
# For cAMP dose-response assays, monolayers of confluent HEK 293 cells were pre-incubated with buffer containing d-luciferin (0.5 mM) in 96 well plates at room temperature until a stable baseline level of luminescence was established (30 min). Varying concentrations of agonist were then added, and the time course of luminescence response was recorded using a Perkin Elmer plate reader following α/β-peptide addition.
# PTHR2 = PTHR2 (Homo sapiens, UniProt P49190); experiment: PTHR2 activation, cAMP production (GloSensor) in HEK293 cells; parameters: expressed in transfected cells; conditions: for EC50: HEK-293 cells, GloSensor cAMP, read-out: EC50 (nM) of PTHR2 Activation
# Excerpt: The assays employ HEK-293 cells that have been engineered to express the appropriate receptor. GloSensor-based detection of cAMP provides a read-out of receptor activation. […] (Carter, P. H. et al. Actions of the Small Molecule Ligands SW106 and AH-3960 on the Type-1 Parathyroid Hormone Receptor. Molecular Endocrinology 29, 307-321 (2015).)
# as §1, with “FIGS. 10A and 10B depict dose-response curves of PTHR1 activation (FIG. 10A) and PTHR2 activation (FIG. 10B) in HEK293 cells stably expressing PTHR1 or PTHR2. For PTHR1” for “For PTHR1”
# [1] = HEK-293 cells, GloSensor cAMP, read-out: EC50 (nM) of PTHR1 Activation
# [2] = Table 8, hPTHR1, read-out: PTHR1 EC50
# Chain of PTHR2 (P49190 25-550): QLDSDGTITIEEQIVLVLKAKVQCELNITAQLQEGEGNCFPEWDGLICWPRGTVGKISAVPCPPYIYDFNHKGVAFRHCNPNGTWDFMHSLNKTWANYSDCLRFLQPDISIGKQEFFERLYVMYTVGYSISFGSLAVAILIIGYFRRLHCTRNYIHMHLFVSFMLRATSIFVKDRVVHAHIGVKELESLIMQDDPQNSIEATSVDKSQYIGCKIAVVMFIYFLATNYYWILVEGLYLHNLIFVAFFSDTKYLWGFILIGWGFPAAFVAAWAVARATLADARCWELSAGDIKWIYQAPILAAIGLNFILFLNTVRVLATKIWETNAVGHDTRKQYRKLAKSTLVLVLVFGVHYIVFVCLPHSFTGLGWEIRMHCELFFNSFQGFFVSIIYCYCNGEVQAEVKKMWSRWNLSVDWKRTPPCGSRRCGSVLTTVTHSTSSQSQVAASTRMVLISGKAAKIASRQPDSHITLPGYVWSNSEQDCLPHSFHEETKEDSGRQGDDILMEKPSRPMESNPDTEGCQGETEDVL
Structure (SMILES),EC50 (PTHR1; [1]) [nM],EC50 (PTHR1; [2]) [nM],PTHR1 Activation: Derivative EC50/PTH EC50 (PTHR1),Tolerance Pattern of β AA (PTHR1 and PTHR2),EC50 (PTHR2) [nM],"PTHR2 Activation: Derivative EC50/PTH EC50 (PTHR2; normalized to EC50 of PTH(1-34)-NH2 ([…] printed), cAMP production)"
CC[C@H](C)[C@H](NC(=O)[C@H](CCC(=O)O)NC(=O)[C@H](CO)NC(=O)[C@@H](NC(=O)[C@@H](N)CO)C(C)C)C(=O)N[C@@H](CCC(N)=O)C(=O)NC[C@H](CC(C)C)C(=O)N[C@@H](CCSC)C(=O)N[C@@H](Cc1c[nH]cn1)C(=O)N[C@@H](CC(N)=O)C(=O)N[C@@H](CC(C)C)C(=O)NCC(=O)N[C@@H](CCCCN)C(=O)N[C@@H](Cc1c[nH]cn1)C(=O)N[C@@H](CC(C)C)C(=O)N[C@@H](CC(N)=O)C(=O)N[C@@H](CO)C(=O)N[C@@H](CCSC)C(=O)N[C@@H](CCC(=O)O)C(=O)N[C@@H](CCCNC(=N)N)C(=O)N[C@H](C(=O)N[C@@H](CCC(=O)O)C(=O)N[C@@H](Cc1c[nH]c2ccccc12)C(=O)N[C@@H](CC(C)C)C(=O)N[C@@H](CCCNC(=N)N)C(=O)N[C@@H](CCCCN)C(=O)N[C@@H](CCCCN)C(=O)N[C@@H](CC(C)C)C(=O)N[C@@H](CCC(N)=O)C(=O)N[C@@H](CC(=O)O)C(=O)N[C@H](C(=O)N[C@@H](Cc1c[nH]cn1)C(=O)N[C@@H](CC(N)=O)C(=O)N[C@@H](Cc1ccccc1)C(N)=O)C(C)C)C(C)C [SEQ. ID. NO: 36],0.47 ± 0.14,0.24 ± 0.01,1.24,*#,–,–
CC[C@H](C)[C@H](NC(=O)[C@H](CCC(=O)O)NC(=O)[C@H](CO)NC(=O)[C@@H](NC(=O)[C@@H](N)CO)C(C)C)C(=O)N[C@@H](CCC(N)=O)C(=O)N[C@H](CC(=O)N[C@@H](CCSC)C(=O)N[C@@H](Cc1c[nH]cn1)C(=O)N[C@@H](CC(N)=O)C(=O)N[C@@H](CC(C)C)C(=O)NCC(=O)N[C@@H](CCCCN)C(=O)N[C@@H](Cc1c[nH]cn1)C(=O)N[C@@H](CC(C)C)C(=O)N[C@@H](CC(N)=O)C(=O)N[C@@H](CO)C(=O)N[C@@H](CCSC)C(=O)N[C@@H](CCC(=O)O)C(=O)N[C@@H](CCCNC(=N)N)C(=O)N[C@H](C(=O)N[C@@H](CCC(=O)O)C(=O)N[C@@H](Cc1c[nH]c2ccccc12)C(=O)N[C@@H](CC(C)C)C(=O)N[C@@H](CCCNC(=N)N)C(=O)N[C@@H](CCCCN)C(=O)N[C@@H](CCCCN)C(=O)N[C@@H](CC(C)C)C(=O)N[C@@H](CCC(N)=O)C(=O)N[C@@H](CC(=O)O)C(=O)N[C@H](C(=O)N[C@@H](Cc1c[nH]cn1)C(=O)N[C@@H](CC(N)=O)C(=O)N[C@@H](Cc1ccccc1)C(N)=O)C(C)C)C(C)C)CC(C)C [SEQ. ID. NO: 44],–,–,–,*,35 ± 2.84,–
CC[C@H](C)[C@H](NC(=O)[C@H](CCC(=O)O)NC(=O)[C@H](CO)NC(=O)[C@@H](CNC(=O)[C@@H](N)CO)C(C)C)C(=O)N[C@@H](CCC(N)=O)C(=O)N[C@@H](CC(C)C)C(=O)N[C@@H](CCSC)C(=O)N[C@@H](Cc1c[nH]cn1)C(=O)N[C@@H](CC(N)=O)C(=O)N[C@@H](CC(C)C)C(=O)NCC(=O)N[C@@H](CCCCN)C(=O)N[C@@H](Cc1c[nH]cn1)C(=O)N[C@@H](CC(C)C)C(=O)N[C@@H](CC(N)=O)C(=O)N[C@@H](CO)C(=O)N[C@@H](CCSC)C(=O)N[C@@H](CCC(=O)O)C(=O)N[C@@H](CCCNC(=N)N)C(=O)N[C@H](C(=O)N[C@@H](CCC(=O)O)C(=O)N[C@@H](Cc1c[nH]c2ccccc12)C(=O)N[C@@H](CC(C)C)C(=O)N[C@@H](CCCNC(=N)N)C(=O)N[C@@H](CCCCN)C(=O)N[C@@H](CCCCN)C(=O)N[C@@H](CC(C)C)C(=O)N[C@@H](CCC(N)=O)C(=O)N[C@@H](CC(=O)O)C(=O)N[C@H](C(=O)N[C@@H](Cc1c[nH]cn1)C(=O)N[C@@H](CC(N)=O)C(=O)N[C@@H](Cc1ccccc1)C(N)=O)C(C)C)C(C)C [SEQ. ID. NO: 23],4.47 ± 0.47,–,11.76,#,–,–

# Now from value to compound, other results behind:
EC50 (PTHR1; [1]) [nM],EC50 (PTHR1; [2]) [nM],PTHR1 Activation: Derivative EC50/PTH EC50 (PTHR1),Structure (SMILES),Tolerance Pattern of β AA (PTHR1 and PTHR2),EC50 (PTHR2) [nM],"PTHR2 Activation: Derivative EC50/PTH EC50 (PTHR2; normalized to EC50 of PTH(1-34)-NH2 ([…] printed), cAMP production)"
0.42 ± 0.07,1.96 ± 0.45,1.11,CC[C@H](C)[C@H](NC(=O)[C@H](CCC(=O)O)NC(=O)[C@H](CO)NC(=O)[C@@H](NC(=O)[C@@H](N)CO)C(C)C)C(=O)NC[C@H](CCC(N)=O)C(=O)N[C@@H](CC(C)C)C(=O)N[C@@H](CCSC)C(=O)N[C@@H](Cc1c[nH]cn1)C(=O)N[C@@H](CC(N)=O)C(=O)N[C@@H](CC(C)C)C(=O)NCC(=O)N[C@@H](CCCCN)C(=O)N[C@@H](Cc1c[nH]cn1)C(=O)N[C@@H](CC(C)C)C(=O)N[C@@H](CC(N)=O)C(=O)N[C@@H](CO)C(=O)N[C@@H](CCSC)C(=O)N[C@@H](CCC(=O)O)C(=O)N[C@@H](CCCNC(=N)N)C(=O)N[C@H](C(=O)N[C@@H](CCC(=O)O)C(=O)N[C@@H](Cc1c[nH]c2ccccc12)C(=O)N[C@@H](CC(C)C)C(=O)N[C@@H](CCCNC(=N)N)C(=O)N[C@@H](CCCCN)C(=O)N[C@@H](CCCCN)C(=O)N[C@@H](CC(C)C)C(=O)N[C@@H](CCC(N)=O)C(=O)N[C@@H](CC(=O)O)C(=O)N[C@H](C(=O)N[C@@H](Cc1c[nH]cn1)C(=O)N[C@@H](CC(N)=O)C(=O)N[C@@H](Cc1ccccc1)C(N)=O)C(C)C)C(C)C [SEQ. ID. NO: 35] (H-SVSEI[X7]LMHNLGKHLNSMERVEWLRKKLQDVHNF-NH2; N-terminus assumed),*#,–,–
0.36 ± 0.11,–,0.95,CC[C@H](C)[C@H](NC(=O)[C@H](CCC(=O)O)NC(=O)[C@H](CO)NC(=O)[C@@H](NC(=O)[C@@H](N)CO)C(C)C)C(=O)N[C@@H](CCC(N)=O)C(=O)NC[C@@H](CC(C)C)C(=O)N[C@@H](CCSC)C(=O)N[C@@H](Cc1c[nH]cn1)C(=O)N[C@@H](CC(N)=O)C(=O)N[C@@H](CC(C)C)C(=O)NCC(=O)N[C@@H](CCCCN)C(=O)N[C@@H](Cc1c[nH]cn1)C(=O)N[C@@H](CC(C)C)C(=O)N[C@@H](CC(N)=O)C(=O)N[C@@H](CO)C(=O)N[C@@H](CCSC)C(=O)N[C@@H](CCC(=O)O)C(=O)N[C@@H](CCCNC(=N)N)C(=O)N[C@H](C(=O)N[C@@H](CCC(=O)O)C(=O)N[C@@H](Cc1c[nH]c2ccccc12)C(=O)N[C@@H](CC(C)C)C(=O)N[C@@H](CCCNC(=N)N)C(=O)N[C@@H](CCCCN)C(=O)N[C@@H](CCCCN)C(=O)N[C@@H](CC(C)C)C(=O)N[C@@H](CCC(N)=O)C(=O)N[C@@H](CC(=O)O)C(=O)N[C@H](C(=O)N[C@@H](Cc1c[nH]cn1)C(=O)N[C@@H](CC(N)=O)C(=O)N[C@@H](Cc1ccccc1)C(N)=O)C(C)C)C(C)C [SEQ. ID. NO: 28],*,41.4 ± 5.18,47.64
0.27 ± 0.06,–,–,CC[C@H](C)[C@H](NC(=O)[C@H](CCC(=O)O)NC(=O)[C@H](CO)NC(=O)[C@@H](NC(=O)C[C@@H](N)CO)C(C)C)C(=O)N[C@@H](CCC(N)=O)C(=O)N[C@@H](CC(C)C)C(=O)N[C@@H](CCSC)C(=O)N[C@@H](Cc1c[nH]cn1)C(=O)N[C@@H](CC(N)=O)C(=O)N[C@@H](CC(C)C)C(=O)NCC(=O)N[C@@H](CCCCN)C(=O)N[C@@H](Cc1c[nH]cn1)C(=O)N[C@@H](CC(C)C)C(=O)N[C@@H](CC(N)=O)C(=O)N[C@@H](CO)C(=O)N[C@@H](CCSC)C(=O)N[C@@H](CCC(=O)O)C(=O)N[C@@H](CCCNC(=N)N)C(=O)N[C@H](C(=O)N[C@@H](CCC(=O)O)C(=O)N[C@@H](Cc1c[nH]c2ccccc12)C(=O)N[C@@H](CC(C)C)C(=O)N[C@@H](CCCNC(=N)N)C(=O)N[C@@H](CCCCN)C(=O)N[C@@H](CCCCN)C(=O)N[C@@H](CC(C)C)C(=O)N[C@@H](CCC(N)=O)C(=O)N[C@@H](CC(=O)O)C(=O)N[C@H](C(=O)N[C@@H](Cc1c[nH]cn1)C(=O)N[C@@H](CC(N)=O)C(=O)N[C@@H](Cc1ccccc1)C(N)=O)C(C)C)C(C)C [SEQ. ID. NO: 38],*#,–,–
